# Measurements from publication PMC3117942 (2011).
# Biological target: T1, RARγ (Homo sapiens, UniProt P13631)
# T1 sequence (P13631 185-419 limits assumed): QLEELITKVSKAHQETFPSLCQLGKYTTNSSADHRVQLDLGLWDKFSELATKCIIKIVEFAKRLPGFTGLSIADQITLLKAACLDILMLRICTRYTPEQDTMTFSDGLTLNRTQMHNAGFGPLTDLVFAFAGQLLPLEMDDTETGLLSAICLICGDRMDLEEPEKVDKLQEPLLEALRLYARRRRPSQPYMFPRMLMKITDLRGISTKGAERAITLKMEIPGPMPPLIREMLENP
# Test: Gal4-RARγ-LBD UAS-luciferase reporter in HEK293T, activation at […]
# Type: cell-based
# Conditions: hek293t cells
compound,measurement,value
"CC1=C(/C=C/C(C)=C/C=C/C(C)=C/C(=O)O)C(C)(C)CCC1 [ATRA, all-trans retinoic acid]","Gal4-RARγ-LBD UAS-luciferase reporter in HEK293T, activation at 1 nM (2.1 fold)",2.1 fold
